# Results reported in PubChem BioAssay AID328 (DTP/NCI, 2004).
# Several values for one entry are separate records, joined by “and”; a condition that tells them apart may be missing. Equal values may be shown once. Inconclusive results and toxic doses are left out.
# Test system: BDF1 mice, P388 leukemia ip, median survival T/C
# Assay: NCI In Vivo Anticancer Drug Screen. Data for tumor model P388 Leukemia (intraperitoneal) in B6D2F1 (BDF1) mice
# Conditions: endpoint: median survival time, higher = longer survival
# Method in brief: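 Read-out is survival of treated animals expressed relative to the vehicle group, as a T/C ratio.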
# [1] = dose: 12.5 mg/kg/injection, schedule: Q04DX003 (ip), vehicle: saline with Tween-80
# [2] = dose: 25.0 mg/kg/injection, schedule: Q04DX003 (ip), vehicle: saline with Tween-80
# [3] = dose: 50.0 mg/kg/injection, schedule: Q04DX003 (ip), vehicle: saline with Tween-80
# [4] = dose: 200.0 mg/kg/injection, schedule: Q04DX003 (ip), vehicle: saline with Tween-80
# [5] = dose: 15.0 mg/kg/injection, schedule: Q01DX009 (ip), vehicle: saline with Tween-80
# [6] = dose: 30.0 mg/kg/injection, schedule: Q01DX009 (ip), vehicle: saline with Tween-80
# [7] = dose: 60.0 mg/kg/injection, schedule: Q01DX009 (ip), vehicle: saline with Tween-80
# [8] = dose: 12.5 mg/kg/injection, schedule: Q01DX009 (ip), vehicle: saline with Tween-80
# [9] = dose: 400.0 mg/kg/injection, schedule: Q04DX003 (ip), vehicle: saline with Tween-80
# [10] = dose: 100.0 mg/kg/injection, schedule: Q01DX009 (ip), vehicle: Klucel (hydroxypropylcellulose) (HPC)
# [11] = dose: 200.0 mg/kg/injection, schedule: Q01DX009 (ip), vehicle: Klucel (hydroxypropylcellulose) (HPC)
# [12] = dose: 400.0 mg/kg/injection, schedule: Q01DX009 (ip), vehicle: Klucel (hydroxypropylcellulose) (HPC)
# [13] = dose: 100.0 mg/kg/injection, schedule: Q04DX003 (ip), vehicle: Klucel (hydroxypropylcellulose) (HPC)
# [14] = dose: 200.0 mg/kg/injection, schedule: Q04DX003 (ip), vehicle: Klucel (hydroxypropylcellulose) (HPC)
# [15] = dose: 400.0 mg/kg/injection, schedule: Q04DX003 (ip), vehicle: Klucel (hydroxypropylcellulose) (HPC)
# [16] = dose: 50.0 mg/kg/injection, schedule: Q01DX009 (ip), vehicle: saline with Tween-80
# [17] = dose: 200.0 mg/kg/injection, schedule: Q01DX009 (ip), vehicle: saline with Tween-80
# [18] = dose: 6.25 mg/kg/injection, schedule: Q01DX009 (ip), vehicle: saline with Tween-80
# [19] = dose: 25.0 mg/kg/injection, schedule: Q01DX009 (ip), vehicle: saline with Tween-80
smiles,measurement,setting,value
COc1cc(C=NCCN=Cc2cc(OC)c(OC)c(OC)c2)cc(OC)c1OC,T/C,[1],111 % of control
same,T/C,[2],107 % of control
same,T/C,[3],92 % of control
same,T/C,[4],95 % of control
O=[N+]([O-])c1ccc(N2CCCCC2)c2c1no[n+]2[O-],T/C,[5],88 % of control
same,T/C,[6],93 % of control
same,T/C,[7],95 % of control
CC(C)C(=O)[O][Sn]([c]1ccccc1)([c]1ccccc1)[c]1ccccc1,T/C,[8],123 % of control
Cc1sc(C)c2c1C[Se]Cc1c(C)sc(C)c1C[Se]C2,T/C,"dose: 12.5 mg/kg/injection, schedule: Q01DX001 (ip), vehicle: saline with Tween-80",95 % of control
same,T/C,"dose: 25.0 mg/kg/injection, schedule: Q01DX001 (ip), vehicle: saline with Tween-80",107 % of control
same,T/C,"dose: 50.0 mg/kg/injection, schedule: Q01DX001 (ip), vehicle: saline with Tween-80",118 % of control
COc1cc(C=O)cc(O)c1O,T/C,"dose: 100.0 mg/kg/injection, schedule: Q01DX009 (ip), vehicle: saline sonified",95 % of control
same,T/C,"dose: 176.0 mg/kg/injection, schedule: Q01DX009 (ip), vehicle: saline sonified",91 % of control
same,T/C,"dose: 200.0 mg/kg/injection, schedule: Q01DX009 (ip), vehicle: saline sonified",120 % of control
same,T/C,"dose: 264.0 mg/kg/injection, schedule: Q01DX009 (ip), vehicle: saline sonified",104 % of control
NC(=O)C1=NNc2ccccc2C(=O)N1c1ccccc1,T/C,"dose: 100.0 mg/kg/injection, schedule: Q04DX003 (ip), vehicle: saline with Tween-80",108 % of control
same,T/C,[4],113 % of control
same,T/C,[9],103 % of control
N#CCCN1CCCCCC1,T/C,[5],104 % of control
same,T/C,[6],89 % of control
same,T/C,[7],98 % of control
CN(/N=N/c1nc[nH]c1C(N)=O)C(C)(C)C,T/C,[10],117 % of control
same,T/C,[11],108 % of control
same,T/C,[12],88 % of control
CCCCCCCC[N+]12CC[N+](CCCCCCCC)(CC1)CC2,T/C,"dose: 3.13 mg/kg/injection, schedule: Q01DX009 (ip), vehicle: saline",106 % of control
same,T/C,"dose: 6.25 mg/kg/injection, schedule: Q01DX009 (ip), vehicle: saline",103 % of control
COC(=O)CNC(=O)C(CSCc1ccccc1)NC(=O)OCc1ccccc1 (configuration not stated),T/C,[13],95 % of control
same,T/C,[14],100 % of control
same,T/C,[15],90 % of control
BrC1C2CC3C(C2)C13 (configuration not stated),T/C,[10],100 % of control
same,T/C,[11],86 % of control
same,T/C,[12],109 % of control
COCCCNS(=O)(=O)c1ncnc2nc[nH]c12,T/C,"dose: 132.0 mg/kg/injection, schedule: Q04DX003 (ip), vehicle: saline with Tween-80",100 % of control
same,T/C,[4],100 % of control
same,T/C,"dose: 300.0 mg/kg/injection, schedule: Q04DX003 (ip), vehicle: saline with Tween-80",100 % of control
Cc1ccc(NC(=O)CC#N)c(C)c1,T/C,"dose: 100.0 mg/kg/injection, schedule: Q04DX003 (ip), vehicle: saline",109 % of control
same,T/C,"dose: 200.0 mg/kg/injection, schedule: Q04DX003 (ip), vehicle: saline",100 % of control
same,T/C,"dose: 400.0 mg/kg/injection, schedule: Q04DX003 (ip), vehicle: saline",92 % of control
CC(=O)[C@H]1CC[C@H]2[C@@H]3C[C@H](F)C4=CC(=O)CC[C@]4(C)[C@H]3C(=O)C[C@]12C,T/C,[16],112 % of control
same,T/C,"dose: 100.0 mg/kg/injection, schedule: Q01DX009 (ip), vehicle: saline with Tween-80",104 % of control
same,T/C,[17],116 % of control
same,T/C,[4],100 % of control
same,T/C,[9],111 % of control
[N-]=[N+]=C1C(=O)NC(=O)N2C3CC(O)C(COC12)O3 (configuration not stated),T/C,"dose: 132.0 mg/kg/injection, schedule: Q01DX009 (ip), vehicle: saline with Tween-80",154 % of control
same,T/C,[17],159 % of control and 170 % of control
same,T/C,"dose: 300.0 mg/kg/injection, schedule: Q01DX009 (ip), vehicle: saline with Tween-80",170 % of control and 177 % of control
CCN1CCCC(Nc2nc(Nc3cc(Cl)cc(Cl)c3)nc3ccc(Cl)cc23)C1 (configuration not stated),T/C,[18],122 % of control
same,T/C,[8],109 % of control
same,T/C,[19],109 % of control
CC(=O)OCC(=O)[C@@]1(O)CC[C@H]2[C@@H]3CCC4=CC(=O)[C@H](C)C[C@]4(C)[C@@]3(F)[C@@H](O)C[C@@]21C,T/C,"dose: 6.25 mg/kg/injection, schedule: Q01DX009 (ip), vehicle: Klucel (hydroxypropylcellulose) (HPC)",109 % of control
same,T/C,"dose: 12.5 mg/kg/injection, schedule: Q01DX009 (ip), vehicle: Klucel (hydroxypropylcellulose) (HPC)",109 % of control
same,T/C,"dose: 25.0 mg/kg/injection, schedule: Q01DX009 (ip), vehicle: Klucel (hydroxypropylcellulose) (HPC)",90 % of control
same,T/C,"dose: 254.0 mg/kg/injection, schedule: Q01DX001 (ip), vehicle: Klucel (hydroxypropylcellulose) (HPC)",100 % of control
same,T/C,"dose: 385.0 mg/kg/injection, schedule: Q01DX001 (ip), vehicle: Klucel (hydroxypropylcellulose) (HPC)",91 % of control
c1ccc(/C(=N\Nc2nc3ccccc3s2)c2ccncc2)cc1,T/C,[10],104 % of control
same,T/C,[13],100 % of control
same,T/C,[11],95 % of control
same,T/C,[14],105 % of control
same,T/C,[12],100 % of control
same,T/C,[15],105 % of control
CC(C#N)N(C)C (configuration not stated),T/C,"dose: 10.0 mg/kg/injection, schedule: Q01DX009 (ip), vehicle: saline",110 % of control
same,T/C,"dose: 10.0 mg/kg/injection, schedule: Q04DX003 (ip), vehicle: saline",95 % of control
same,T/C,"dose: 20.0 mg/kg/injection, schedule: Q04DX003 (ip), vehicle: saline",91 % of control
same,T/C,"dose: 40.0 mg/kg/injection, schedule: Q04DX003 (ip), vehicle: saline",95 % of control
CC1(O)CC(=O)c2c(ccc3c2C(=O)c2cccc(O)c2C3=O)C1 (configuration not stated),T/C,"dose: 0.5 mg/kg/injection, schedule: Q01DX009 (ip), vehicle: Klucel (hydroxypropylcellulose) (HPC)",101 % of control
same,T/C,"dose: 1.0 mg/kg/injection, schedule: Q01DX009 (ip), vehicle: Klucel (hydroxypropylcellulose) (HPC)",101 % of control
same,T/C,"dose: 2.0 mg/kg/injection, schedule: Q01DX009 (ip), vehicle: Klucel (hydroxypropylcellulose) (HPC)",109 % of control
same,T/C,"dose: 4.0 mg/kg/injection, schedule: Q01DX009 (ip), vehicle: Klucel (hydroxypropylcellulose) (HPC)",111 % of control
CCCC(O)Cc1c[nH]c(=O)[nH]c1=O (configuration not stated),T/C,[18],101 % of control
same,T/C,[8],92 % of control
same,T/C,[1],101 % of control
same,T/C,[19],106 % of control
same,T/C,[2],104 % of control
same,T/C,[16],93 % of control
same,T/C,[3],100 % of control
CCOC(=O)C1OC12CCCCC2 (configuration not stated),T/C,"dose: 100.0 mg/kg/injection, schedule: Q01DX001 (ip), vehicle: Klucel (hydroxypropylcellulose) (HPC)",109 % of control
same,T/C,"dose: 200.0 mg/kg/injection, schedule: Q01DX001 (ip), vehicle: Klucel (hydroxypropylcellulose) (HPC)",100 % of control
same,T/C,[14],100 % of control
same,T/C,"dose: 400.0 mg/kg/injection, schedule: Q01DX001 (ip), vehicle: Klucel (hydroxypropylcellulose) (HPC)",113 % of control
same,T/C,[15],116 % of control
C[C@]12C[C@H](O)[C@H]3[C@@H](CCC4=CC(=O)CC[C@@]43C)[C@@H]1CC[C@@H]2C(=O)CO,T/C,"dose: 45.0 mg/kg/injection, schedule: Q04DX003 (sc), vehicle: steriod suspending solution",95 % of control
same,T/C,"dose: 65.0 mg/kg/injection, schedule: Q04DX003 (sc), vehicle: steriod suspending solution",100 % of control
same,T/C,"dose: 200.0 mg/kg/injection, schedule: Q04DX003 (sc), vehicle: steriod suspending solution",115 % of control
same,T/C,"dose: 264.0 mg/kg/injection, schedule: Q01DX009 (sc), vehicle: steriod suspending solution",109 % of control
same,T/C,"dose: 264.0 mg/kg/injection, schedule: Q04DX003 (sc), vehicle: steriod suspending solution",110 % of control
same,T/C,"dose: 400.0 mg/kg/injection, schedule: Q01DX009 (sc), vehicle: steriod suspending solution",122 % of control
same,T/C,"dose: 400.0 mg/kg/injection, schedule: Q04DX003 (sc), vehicle: steriod suspending solution",110 % of control
